Columns and labels:
Assay in all cases: relative viability (nuclei count vs DMSO), 5 days (fraction); higher = more cells survive
NCI-H3122 = system: NCI-H3122
Outline: (§1)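 Each reported value is a median over duplicate plates. It expresses relative viability: treated-well nuclei count divided by vehicle-well nuclei count. Lung cancer cell lines in 1536-well plates were dosed by pin tool a day after seeding, alone with one drug or with a fixed anchor-drug dose plus five library-drug doses (not always all listed) in √10 steps, and nuclei were counted after 5 days.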

NCI-H727 = system: NCI-H727
Outline: as §1

NCI-H1793 = system: NCI-H1793
Outline: as §1

RERF-LC-KJ = system: RERF-LC-KJ
Outline: as §1

LXF-289 = system: LXF-289
Outline: as §1

NCI-H2405 = system: NCI-H2405
Outline: as §1

HCC-827 = system: HCC-827
Outline: as §1

LCLC-97TM1 = system: LCLC-97TM1
Outline: as §1

NCI-H1437 = system: NCI-H1437
Outline: as §1

BEN = system: BEN
Outline: as §1

NCI-H322M = system: NCI-H322M
Outline: as §1

NCI-H1792 = system: NCI-H1792
Outline: as §1

NCI-H2087 = system: NCI-H2087
Outline: as §1

NCI-H1944 = system: NCI-H1944
Outline: as §1

NCI-H2228 = system: NCI-H2228
Outline: as §1

SK-LU-1 = system: SK-LU-1
Outline: as §1

NCI-H1395 = system: NCI-H1395
Outline: as §1

CAL-12T = system: CAL-12T
Outline: as §1

NCI-H1650 = system: NCI-H1650
Outline: as §1

NCI-H647 = system: NCI-H647
Outline: as §1

201T = system: 201T
Outline: as §1

Compound `CCN(CC)CCCCNc1ncc2cc(-c3cc(OC)cc(OC)c3)c(NC(=O)NC(C)(C)C)nc2n1` + CC1(C)CCC(c2ccc(Cl)cc2)=C(CN2CCN(c3ccc(C(=O)NS(=O)(=O)c4ccc(N[C@H](CCN5CCOCC5)CSc5ccccc5)c(S(=O)(=O)C(F)(F)F)c4)cc3)CC2)C1 [Navitoclax] (partner 0.5 µM) has a relative viability (NCI-H3122; first compound 0.01 µM) of 1.02, a relative viability (NCI-H3122; first compound 0.03162 µM) of 1.06 and a relative viability (NCI-H3122; first compound 0.1 µM) of 1.06. The relative viability (NCI-H3122; first compound 0.3162 µM) was 1.03, the relative viability (NCI-H3122; first compound 1 µM) was 1.07 and the relative viability (NCI-H727; first compound 0.01 µM) was 0.443. The relative viability (NCI-H727; first compound 0.03162 µM) was 0.336, the relative viability (NCI-H727; first compound 0.1 µM) was 0.428 and the relative viability (NCI-H727; first compound 0.3162 µM) was 0.454. The relative viability (NCI-H727; first compound 1 µM) was 0.387, the relative viability (NCI-H1793; first compound 0.01 µM) was 0.988 and the relative viability (NCI-H1793; first compound 0.1 µM) was 0.326. It also gave a relative viability (NCI-H1793; first compound 0.3162 µM) of 0.439, a relative viability (NCI-H1793; first compound 1 µM) of 0.326 and a relative viability (RERF-LC-KJ; first compound 0.01 µM) of 0.996. The relative viability (RERF-LC-KJ; first compound 0.03162 µM) was 0.851, the relative viability (RERF-LC-KJ; first compound 0.1 µM) was 0.925 and the relative viability (RERF-LC-KJ; first compound 0.3162 µM) was 1.09. For the same compound, the relative viability (RERF-LC-KJ; first compound 1 µM) was 0.997, the relative viability (LXF-289; first compound 0.01 µM) was 1.02 and the relative viability (LXF-289; first compound 0.03162 µM) was 0.968. The relative viability (LXF-289; first compound 0.1 µM) was 1.07, the relative viability (LXF-289; first compound 0.3162 µM) was 0.939 and the relative viability (LXF-289; first compound 1 µM) was 0.834. The relative viability (NCI-H2405; first compound 0.01 µM) was 0.707, the relative viability (NCI-H2405; first compound 0.03162 µM) was 0.772 and the relative viability (NCI-H2405; first compound 0.1 µM) was 0.853. For the same compound, the relative viability (NCI-H2405; first compound 0.3162 µM) was 0.901, the relative viability (NCI-H2405; first compound 1 µM) was 0.789 and the relative viability (HCC-827; first compound 0.01 µM) was 1.06. The relative viability (HCC-827; first compound 0.03162 µM) was 0.981, the relative viability (HCC-827; first compound 0.1 µM) was 1.05 and the relative viability (HCC-827; first compound 0.3162 µM) was 0.993. For the same compound, the relative viability (HCC-827; first compound 1 µM) was 1.02, the relative viability (LCLC-97TM1; first compound 0.03162 µM) was 0.356 and the relative viability (LCLC-97TM1; first compound 0.1 µM) was 0.503. For the same compound, the relative viability (LCLC-97TM1; first compound 0.3162 µM) was 0.435, the relative viability (LCLC-97TM1; first compound 1 µM) was 0.4 and the relative viability (NCI-H1437; first compound 0.01 µM) was 1.11. The relative viability (NCI-H1437; first compound 0.03162 µM) was 1.1, the relative viability (NCI-H1437; first compound 0.1 µM) was 1.35 and the relative viability (NCI-H1437; first compound 0.3162 µM) was 1.22. The relative viability (NCI-H1437; first compound 1 µM) was 1.04, the relative viability (BEN; first compound 0.01 µM) was 0.0624 and the relative viability (BEN; first compound 0.03162 µM) was 0.0641. For the same compound, the relative viability (BEN; first compound 0.1 µM) was 0.0454, the relative viability (BEN; first compound 0.3162 µM) was 0.0573 and the relative viability (BEN; first compound 1 µM) was 0.0385. For the same compound, the relative viability (NCI-H322M; first compound 0.01 µM) was 1.26, the relative viability (NCI-H322M; first compound 0.03162 µM) was 1.29 and the relative viability (NCI-H322M; first compound 0.1 µM) was 1.23. The relative viability (NCI-H322M; first compound 0.3162 µM) was 1.22, the relative viability (NCI-H322M; first compound 1 µM) was 1.2 and the relative viability (NCI-H1792; first compound 0.01 µM) was 0.688. It also gave a relative viability (NCI-H1792; first compound 0.03162 µM) of 0.739, a relative viability (NCI-H1792; first compound 0.1 µM) of 0.712 and a relative viability (NCI-H1792; first compound 0.3162 µM) of 1.49. It also gave a relative viability (NCI-H1792; first compound 1 µM) of 0.19, a relative viability (NCI-H2087; first compound 0.01 µM) of 1.15 and a relative viability (NCI-H2087; first compound 0.03162 µM) of 1.12. It also gave a relative viability (NCI-H2087; first compound 0.1 µM) of 1.35, a relative viability (NCI-H2087; first compound 0.3162 µM) of 1.23 and a relative viability (NCI-H2087; first compound 1 µM) of 0.986. The relative viability (NCI-H1944; first compound 0.01 µM) was 1.18, the relative viability (NCI-H1944; first compound 0.03162 µM) was 1.02 and the relative viability (NCI-H1944; first compound 0.1 µM) was 1.08. For the same compound, the relative viability (NCI-H1944; first compound 0.3162 µM) was 1.09, the relative viability (NCI-H1944; first compound 1 µM) was 1.02 and the relative viability (NCI-H2228; first compound 0.01 µM) was 0.841. The relative viability (NCI-H2228; first compound 0.03162 µM) was 0.866, the relative viability (NCI-H2228; first compound 0.1 µM) was 0.979 and the relative viability (NCI-H2228; first compound 0.3162 µM) was 0.884. It also gave a relative viability (NCI-H2228; first compound 1 µM) of 0.541, a relative viability (SK-LU-1; first compound 0.01 µM) of 1.02 and a relative viability (SK-LU-1; first compound 0.03162 µM) of 0.894. The relative viability (SK-LU-1; first compound 0.1 µM) was 1.08, the relative viability (SK-LU-1; first compound 0.3162 µM) was 1.18 and the relative viability (SK-LU-1; first compound 1 µM) was 0.639. The relative viability (NCI-H1395; first compound 0.03162 µM) was 1.1, the relative viability (NCI-H1395; first compound 0.1 µM) was 1.09 and the relative viability (NCI-H1395; first compound 0.3162 µM) was 1.17. It also gave a relative viability (NCI-H1395; first compound 1 µM) of 0.751, a relative viability (CAL-12T; first compound 0.01 µM) of 1.43 and a relative viability (CAL-12T; first compound 0.03162 µM) of 1.12. It also gave a relative viability (CAL-12T; first compound 0.1 µM) of 1.22, a relative viability (CAL-12T; first compound 0.3162 µM) of 1.42 and a relative viability (CAL-12T; first compound 1 µM) of 1.19. For the same compound, the relative viability (NCI-H1650; first compound 0.01 µM) was 1.12, the relative viability (NCI-H1650; first compound 0.03162 µM) was 1.03 and the relative viability (NCI-H1650; first compound 0.1 µM) was 1.17. For the same compound, the relative viability (NCI-H1650; first compound 0.3162 µM) was 0.784, the relative viability (NCI-H1650; first compound 1 µM) was 0.7 and the relative viability (NCI-H647; first compound 0.01 µM) was 1.12. For the same compound, the relative viability (NCI-H647; first compound 0.03162 µM) was 1.14, the relative viability (NCI-H647; first compound 0.1 µM) was 1.41 and the relative viability (NCI-H647; first compound 0.3162 µM) was 1.21. For the same compound, the relative viability (NCI-H647; first compound 1 µM) was 0.929, the relative viability (201T; first compound 0.01 µM) was 1.17 and the relative viability (201T; first compound 0.03162 µM) was 1.21. It also gave a relative viability (201T; first compound 0.1 µM) of 1.24, a relative viability (201T; first compound 0.3162 µM) of 1.23 and a relative viability (201T; first compound 1 µM) of 1.19.
